# From paper PMC10788941, “Solubilizer Tag Effect on PD-L1/Inhibitor Binding Properties for m-Terphenyl Derivatives” (ACS Medicinal Chemistry Letters, 2023)
# Tests used:
# [1] = target: T1, PD-1/PD-L1 complex (hPD-1, hPD-L1) (Homo sapiens, UniProt Q9NZQ7); experiment: HTRF assay of PD-1/PD-L1 complex disruption (Cis-Bio kit); format: binding; conditions: disruption of PD-1/PD-L1 complex, n = 2
# T1 construct: purchased Cis-Bio
# Text: 4.3. Homogenous Time-Resolved Fluorescence
# HTRF (Homogeneous Time Resolved Fluorescence) is a widely used technology for homogenous analyte measurement, particularly in high-throughput screening for drug target studies.
# This technology combines fluorescence resonance energy transfer (FRET) with tim e-resolved measurement. In TR-FRET assays, a signal is generated when a donor and an acceptor molecule are in proximity (so-called FRET distance), transfer energy through FRET. Both fluorophores are attached to the monoclonal antibodies that are then specifically detecting particular tags on target proteins.
# The commercially available Cis-Bio assay kit was used to perform the HTRF assay. Following the standard protocol, the measurement was carried out at a 20 µL final volume with a 5 nM concentration of hPD-1 and 50 nM concentration of hPD-L1 in the final formulation. Separate dilution […]
# compounds. Analyte and detection reagents (anti-analyte conjugated donor and acceptor conjugated […]
# plate was left for 1 h of incubation and it was read on an HTRF certified microplate reader Tecan Spark
# 20M. Output data were subjected to background subtraction on negative control (no PD-1), and normalization in correlation to the positive control (no inhibitor) and averaged. Resulting data points were then fitted with Hill’s equation to generate IC50 using Mathematica 12. […]
# [2] = target: T2, PD-1/PD-L1 immune checkpoint (Homo sapiens, UniProt Q9NZQ7); experiment: cell-based PD-1/PD-L1 immune checkpoint blockade (ICB) assay, Jurkat-ECs with CHO/TCRAct/PD-L1 cells, luciferase readout; conditions: for activation of Jurkat-ECs (fold induction): relative to DMSO-treated cells; for dose-dependent activation of Jurkat-ECs and toxicity: different concentrations, Figure S1
# T2 construct: host or cells: CHO/TCRAct/PD-L1 cells (PD-L1); Jurkat-ECs (PD-1)
# T2 sequence (Q9NZQ7 19-290): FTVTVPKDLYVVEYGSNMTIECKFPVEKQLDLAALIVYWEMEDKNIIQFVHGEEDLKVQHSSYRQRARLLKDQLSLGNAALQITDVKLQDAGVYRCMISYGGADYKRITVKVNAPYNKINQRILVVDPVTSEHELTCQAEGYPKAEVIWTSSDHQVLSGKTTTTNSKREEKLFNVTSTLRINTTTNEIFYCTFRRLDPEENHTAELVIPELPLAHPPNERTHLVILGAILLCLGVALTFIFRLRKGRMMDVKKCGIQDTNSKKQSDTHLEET
# Protocol: 4.4. PD-1/PD-L1 immune checkpoint blockade (ICB) assay
# For the in vitro analysis of the bioactivity of the molecules an Immune Checkpoint Blockade assay was performed 4 CHO/TCRAct/PD -L1 cells (Promega), overexpressing an artificial TCR - activator construct and PD -L1, were seeded on 96 -well white plates at the density of 10 000 cells/well.
# The next day, the cells were overlaid with the effector Jurkat T cells (Jurkat -ECs, Promega, 20 000 cells/well), overexpressing PD -1 and containing construct assuring an NFAT -induced expression of luciferase, either in the presence of the indicated concentrations of the compounds with DMSO -only as a control (the concentration of DMSO was kept constant at 0.1%) or durvalumab (Selleckchem), as a positive control, with untreated cells as controls. Activation of the Jurkat -ECs, reflected by luciferase activity, was monitored by luminescence measurements after 6 h of incubation (37°C, 5%CO 2), and […]
# 20 min of additional incubation with the Bio-GloTM Assay reagent (Promega) at room temperature.
# The luminescence was read on the Spark microplate reader (Tecan). The data is presented as fold induction of the luminescence signal relative to either untreated (for durvalumab) or DMSO-treated (for compounds) cells. Data points represent mean ± SD values from duplicates. […]
# HCl, 0.25 mM oxidized glutathione, and 0.25 mM reduced glutathione. After the refolding step, the protein was dialyzed 3 times against buffer containing 10 mM Tris-HCl pH 8.0 and 20 mM NaCl. The final step of purification consisted of size exclusion chromatography using a Superdex 75 column and 10 mM Tris- HCl, 20 mM NaCl based buffer for crystallization or PBS buffer for NMR based experiments. The correctly folded state and purity of the PD-L1 protein were checked by NMR and […]
# The freshly purified protein was concentrated to 5 mg/mL and then mixed in a 1:3 molar ratio with an excess of the 2f inhibitor, finally the solution was centrifuged for 1 minute at max speed. The clarified solution was then used for screening using multiple available commercial screens. The diffraction quality crystals were obtained from a sitting drop set up at room temperature with a buffer containing 27 % w/v PEG 3350, 0.1 M Bis-Tris propane, pH 7.0 and 0.2 M Lithium sulfate. Crystals were cryo-protected using glycerol and flash frozen with liquid nitrogen.
# The X-ray diffraction data were collected at the BL13 - XALOC beamline at ALBA (Barcelona, Spain).6The data were indexed, integrated, and scaled using XDS, SCALE, and Aimless.
# 7–9 The initial phase estimates was obtained by molecular replacement calculated in Phaser using PDB:5C3T as a model.10 The refinement was performed using CCP4cloud11 and verified using Coot .12–14 The structure was deposited in the Protein Data Bank with accession number 8R6Q. The protein-ligand interactions were assessed using PLIP server15 and visualized using PyMol (The PyMOL Molecular Graphics System, Version 2.0 Schrödinger, LLC).
# 4.6. Crystal structure determination for compound 2a
# X-ray diffraction data for single crystals of compound 2a was collected using XtalLAB Synergy-S four-circle diffractometer with a mirror monochromator and a microfocus CuKα radiation source (λ = 1.5418 Å). The CryoStream cryostat system was used to allow low-temperature
# T1 sequence (Q9NZQ7 19-238 limits assumed, one chain of several): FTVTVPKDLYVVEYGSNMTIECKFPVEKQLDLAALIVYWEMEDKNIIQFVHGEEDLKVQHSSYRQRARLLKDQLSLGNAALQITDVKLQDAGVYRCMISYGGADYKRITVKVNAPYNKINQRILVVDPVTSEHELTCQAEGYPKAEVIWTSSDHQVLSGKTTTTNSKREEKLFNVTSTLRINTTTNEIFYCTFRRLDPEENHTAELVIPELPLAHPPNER
Compound,IC50 [1] [nM],further results
COc1cc(-c2cccc(-c3ccc4c(c3)OCCO4)c2Cl)ccc1CN1CCCC1C(=O)O (centres unmarked) [1a],< 0.5,–
COc1cc(-c2cccc(-c3ccc4c(c3)OCCO4)c2Cl)ccc1CN1CCCC1C(=O)NO (centres unmarked) [1b],> 1000,–
COc1cc(-c2cccc(-c3ccc4c(c3)OCCO4)c2Cl)ccc1CN1CCCC1C(=O)NN (centres unmarked) [1c],76.2 ± 2.35,–
COc1cc(-c2cccc(-c3ccc4c(c3)OCCO4)c2Cl)ccc1CN1CCCC1C(=O)NN(C)C (centres unmarked) [1d],< 0.5,–
COc1cc(-c2cccc(-c3ccc4c(c3)OCCO4)c2Cl)ccc1CN1CCCC1C(=O)NCCN (centres unmarked) [1e],< 0.5,–
COc1cc(-c2cccc(-c3ccc4c(c3)OCCO4)c2Cl)ccc1CN1CCCC1C(=O)NCCO (centres unmarked) [1f],< 0.5,–
COc1cc(-c2cccc(-c3ccc4c(c3)OCCO4)c2Cl)ccc1CN1CCCC1C(=O)NC(CO)CO (centres unmarked) [1g],< 0.5,–
COc1cc(-c2cccc(-c3ccc4c(c3)OCCO4)c2Cl)ccc1CN1CCCC1C(=O)NC(CO)(CO)CO (centres unmarked) [1h],< 0.5,–
COc1cc(-c2cccc(-c3ccc4c(c3)OCCO4)c2Cl)ccc1CN1CCC(C(=O)O)C1 (centres unmarked) [2a],1.1 ± 0.07,–
COc1cc(-c2cccc(-c3ccc4c(c3)OCCO4)c2Cl)ccc1CN1CCC(C(=O)NO)C1 (centres unmarked) [2b],0.94 ± 0.01,activation of Jurkat-ECs (fold induction) ([2]; compound 1 μM): bioactivity was observed
COc1cc(-c2cccc(-c3ccc4c(c3)OCCO4)c2Cl)ccc1CN1CCC(C(=O)NN)C1 (centres unmarked) [2c],< 0.5,–
COc1cc(-c2cccc(-c3ccc4c(c3)OCCO4)c2Cl)ccc1CN1CCC(C(=O)NN(C)C)C1 (centres unmarked) [2d],12 ± 2.01,activation of Jurkat-ECs (fold induction) ([2]; compound 6.4 μM): activity was retained; dose-dependent activation of Jurkat-ECs and toxicity [2]: highest dose-dependent activity and lowest toxicity
COc1cc(-c2cccc(-c3ccc4c(c3)OCCO4)c2Cl)ccc1CN1CCC(C(=O)NCCN)C1 (centres unmarked) [2e],4.94 ± 0.37,"activation of Jurkat-ECs (fold induction) ([2]; compound 1 μM): bioactivity was observed; activation of Jurkat-ECs (fold induction) ([2]; compound 6.4 μM, 6.4 µM): T cell activation dropped down and tox."
COc1cc(-c2cccc(-c3ccc4c(c3)OCCO4)c2Cl)ccc1CN1CCC(C(=O)NCCO)C1 (centres unmarked) [2f],< 0.5,dose-dependent activation of Jurkat-ECs and toxicity [2]: highest dose-dependent activity and lowest toxicity
COc1cc(-c2cccc(-c3ccc4c(c3)OCCO4)c2Cl)ccc1CN1CCC(C(=O)NC(CO)CO)C1 (centres unmarked) [2g],< 0.5,activation of Jurkat-ECs (fold induction) ([2]; compound 1 μM): bioactivity was observed; activation of Jurkat-ECs (fold induction) ([2]; compound 6.4 μM): activity was retained; dose-dependent activation of Jurkat-ECs and toxicity [2]: highest dose-dependent activity and lowest toxicity
COc1cc(-c2cccc(-c3ccc4c(c3)OCCO4)c2Cl)ccc1CN1CCC(C(=O)NC(CO)(CO)CO)C1 (centres unmarked) [2h],< 0.5,activation of Jurkat-ECs (fold induction) ([2]; compound 1 μM): bioactivity was observed; activation of Jurkat-ECs (fold induction) ([2]; compound 6.4 μM): T cell activation dropped down
COc1cc(-c2cccc(-c3ccc4c(c3)OCCO4)c2Cl)ccc1CN1CCCCC1C(=O)O (centres unmarked) [3a],0.58 ± 0.05,–
COc1cc(-c2cccc(-c3ccc4c(c3)OCCO4)c2Cl)ccc1CN1CCCCC1C(=O)NN (centres unmarked) [3c],16.7 ± 1.63,–

Compound,IC50 [1] [nM],further results
COc1cc(-c2cccc(-c3ccc4c(c3)OCCO4)c2Cl)ccc1CN1CCCCC1C(=O)NN(C)C (centres unmarked) [3d],56 ± 1.33,–
COc1cc(-c2cccc(-c3ccc4c(c3)OCCO4)c2Cl)ccc1CN1CCCCC1C(=O)NCCO (centres unmarked) [3f],0.9 ± 0.05,–
COc1cc(-c2cccc(-c3ccc4c(c3)OCCO4)c2Cl)ccc1CN1CCCCC1C(=O)NC(CO)CO (centres unmarked) [3g],63.6 ± 1.86,–
COc1cc(-c2cccc(-c3ccc4c(c3)OCCO4)c2Cl)ccc1CN1CCCCC1C(=O)NC(CO)(CO)CO (centres unmarked) [3h],477 ± 83.5,–
COc1cc(-c2cccc(-c3ccc4c(c3)OCCO4)c2Cl)ccc1CN1CCCC(C(=O)O)C1 (centres unmarked) [4a],< 0.5,–
COc1cc(-c2cccc(-c3ccc4c(c3)OCCO4)c2Cl)ccc1CN1CCCC(C(=O)NO)C1 (centres unmarked) [4b],1.09 ± 0.07,–
COc1cc(-c2cccc(-c3ccc4c(c3)OCCO4)c2Cl)ccc1CN1CCCC(C(=O)NN)C1 (centres unmarked) [4c],79.9 ± 5.7,–
COc1cc(-c2cccc(-c3ccc4c(c3)OCCO4)c2Cl)ccc1CN1CCCC(C(=O)NN(C)C)C1 (centres unmarked) [4d],37 ± 1.75,–
COc1cc(-c2cccc(-c3ccc4c(c3)OCCO4)c2Cl)ccc1CN1CCCC(C(=O)NCCO)C1 (centres unmarked) [4f],< 0.5,–
COc1cc(-c2cccc(-c3ccc4c(c3)OCCO4)c2Cl)ccc1CN1CCCC(C(=O)NC(CO)(CO)CO)C1 (centres unmarked) [4h],19.3 ± 1.22,–
COc1cc(-c2cccc(-c3ccc4c(c3)OCCO4)c2Cl)ccc1CN1CCC(C(=O)O)CC1 [5a],< 0.5,–
COc1cc(-c2cccc(-c3ccc4c(c3)OCCO4)c2Cl)ccc1CN1CCC(C(=O)NO)CC1 [5b],766 ± 71.5,–
COc1cc(-c2cccc(-c3ccc4c(c3)OCCO4)c2Cl)ccc1CN1CCC(C(=O)NN)CC1 [5c],96.5 ± 2.71,–
COc1cc(-c2cccc(-c3ccc4c(c3)OCCO4)c2Cl)ccc1CN1CCC(C(=O)NN(C)C)CC1 [5d],< 0.5,–
COc1cc(-c2cccc(-c3ccc4c(c3)OCCO4)c2Cl)ccc1CN1CCC(C(=O)NCCN)CC1 [5e],< 0.5,–
COc1cc(-c2cccc(-c3ccc4c(c3)OCCO4)c2Cl)ccc1CN1CCC(C(=O)NCCO)CC1 [5f],0.55 ± 0.03,–
COc1cc(-c2cccc(-c3ccc4c(c3)OCCO4)c2Cl)ccc1CN1CCC(C(=O)NC(CO)CO)CC1 [5g],< 0.5,–
COc1cc(-c2cccc(-c3ccc4c(c3)OCCO4)c2Cl)ccc1CN1CCC(C(=O)NC(CO)(CO)CO)CC1 [5h],< 0.5,–
